According to ChEMBL document CHEMBL1201862, “PubChem BioAssay data set” (2004):
“And” between values parts separate entries of the source, which are not always exact repeats. Equal values may be shown once.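 All cell lines were grown in 96-well plates and treated with compound for 48 hours. GI50 marks 50% less growth.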 The source made the active and inactive calls. Cut-off read from the data, not from the text of the source: active = GI50 up to about 1.1 µM and inactive = higher.

Columns and labels:
Assay in all cases: DTP human tumour cell line panel, 48 h
CAKI-1 = system: CAKI-1
CCRF-CEM = system: CCRF-CEM
DU-145 = system: DU-145
HL-60 = system: HL-60
K562 = system: K562
MOLT-4 = system: MOLT-4
NCI-H460 = system: NCI-H460
NCI-H522 = system: NCI-H522
NCI/ADR-RES = system: NCI/ADR-RES
OVCAR-3 = system: OVCAR-3
OVCAR-5 = system: OVCAR-5
OVCAR-8 = system: OVCAR-8
RXF 393 = system: RXF 393
SF-295 = system: SF-295
SK-MEL-28 = system: SK-MEL-28
SNB-19 = system: SNB-19
SR = system: SR
U-251 = system: U-251
UO-31 = system: UO-31
PC-3 = system: PC-3

SMILES	GI50 (CAKI-1)	GI50 (CCRF-CEM)	GI50 (DU-145)	GI50 (HL-60)	GI50 (K562)	GI50 (MOLT-4)	GI50 (NCI-H460)	GI50 (NCI-H522)	GI50 (NCI/ADR-RES)	GI50 (OVCAR-3)	GI50 (OVCAR-5)	GI50 (OVCAR-8)	GI50 (RXF 393)	GI50 (SF-295)	GI50 (SK-MEL-28)	GI50 (SNB-19)	GI50 (SR)	GI50 (U-251)	GI50 (UO-31)	GI50 (PC-3)
CC(=O)SCCC(NC(=S)Nc1ccccc1)P(=O)(Oc1ccccc1)Oc1ccccc1 (stereo not drawn)	> 100 µM (inactive)	> 100 µM (inactive)	> 100 µM (inactive)	> 100 µM (inactive)	> 100 µM (inactive)	> 100 µM (inactive)	> 100 µM (inactive)	> 100 µM (inactive)	> 100 µM (inactive)	> 100 µM (inactive)	> 100 µM (inactive)	> 100 µM (inactive)	> 100 µM (inactive)	> 100 µM (inactive)	> 100 µM (inactive)	> 100 µM (inactive)	> 100 µM (inactive)	> 100 µM (inactive)	> 100 µM (inactive)	–
N=c1c2c(-c3ccccc3)c[nH]c2ncn1N	> 100 µM (inactive)	> 100 µM (inactive)	–	> 100 µM (inactive)	> 100 µM (inactive)	> 100 µM (inactive)	–	> 100 µM (inactive)	> 100 µM (inactive)	> 100 µM (inactive)	> 100 µM (inactive)	> 100 µM (inactive)	–	> 100 µM (inactive)	> 100 µM (inactive)	> 100 µM (inactive)	–	> 100 µM (inactive)	> 100 µM (inactive)	> 100 µM (inactive)
CC(=O)C(=[N+]=[N-])C(=O)N(C)CCC#N	–	> 10 µM (inactive)	> 10 µM (inactive)	> 10 µM (inactive)	> 10 µM (inactive)	> 10 µM (inactive)	> 10 µM (inactive)	–	–	> 10 µM (inactive)	> 10 µM (inactive)	> 10 µM (inactive)	> 10 µM (inactive)	> 10 µM (inactive)	> 10 µM (inactive)	> 10 µM (inactive)	> 10 µM (inactive)	> 10 µM (inactive)	> 10 µM (inactive)	> 10 µM (inactive)
COC(=O)C1=COC(C)C2CN3CCc4c([nH]c5cc(OC)c(OC)cc45)C3CC12 (stereo not drawn)	> 100 µM (inactive)	–	> 100 µM (inactive) and 98.9 µM (inactive)	26.6 µM (inactive) and 29.9 µM (inactive)	38.4 µM (inactive) and 37.8 µM (inactive)	35.5 µM (inactive) and 28.6 µM (inactive)	–	–	–	58.3 µM (inactive)	> 100 µM (inactive)	–	15.3 µM (inactive)	59.4 µM (inactive) and 56.1 µM (inactive)	–	66.8 µM (inactive) and 75.3 µM (inactive)	31 µM (inactive) and 58.6 µM (inactive)	–	51.1 µM (inactive) and 54.2 µM (inactive)	64.9 µM (inactive) and 37 µM (inactive)
O=C(/C=C\c1ccc(Cl)c(Cl)c1)c1ccc(Cl)cc1Cl	27.3 µM (inactive)	4.1 µM (inactive)	–	4.73 µM (inactive)	6.11 µM (inactive)	2.99 µM (inactive)	23.3 µM (inactive)	15.9 µM (inactive)	–	18.2 µM (inactive)	> 10 µM (inactive)	19.1 µM (inactive)	16.1 µM (inactive)	18.6 µM (inactive)	> 10 µM (inactive)	12.4 µM (inactive)	3.09 µM (inactive)	11.9 µM (inactive)	> 10 µM (inactive)	–
CCc1nc(Cl)c(Cl)c(Cl)n1	–	> 100 µM (inactive)	–	> 100 µM (inactive)	> 100 µM (inactive)	> 100 µM (inactive)	> 100 µM (inactive)	–	> 100 µM (inactive)	> 100 µM (inactive)	> 100 µM (inactive)	> 100 µM (inactive)	> 100 µM (inactive)	> 100 µM (inactive)	> 100 µM (inactive)	> 100 µM (inactive)	> 100 µM (inactive)	> 100 µM (inactive)	> 100 µM (inactive)	> 100 µM (inactive)
C[C@H](NC(=O)n1c2ccccc2c2ccccc21)C(=O)O	> 100 µM (inactive)	> 100 µM (inactive)	–	> 100 µM (inactive)	> 100 µM (inactive)	> 100 µM (inactive)	> 100 µM (inactive)	> 100 µM (inactive)	–	> 100 µM (inactive)	> 100 µM (inactive)	> 100 µM (inactive)	> 100 µM (inactive)	> 100 µM (inactive)	> 100 µM (inactive)	> 100 µM (inactive)	> 100 µM (inactive)	> 100 µM (inactive)	–	–
CC(C(=O)N1C(=O)N(C(=O)C(C)C(O)c2ccccc2)C(c2ccccc2)C1c1ccccc1)C(O)c1ccccc1 (stereo not drawn)	–	5.56 µM (inactive)	21.3 µM (inactive)	2.27 µM (inactive)	4.47 µM (inactive)	3.66 µM (inactive)	4.25 µM (inactive)	7.19 µM (inactive)	–	5.94 µM (inactive)	–	7.98 µM (inactive)	6.21 µM (inactive)	2.84 µM (inactive)	15.8 µM (inactive)	5.52 µM (inactive)	3.61 µM (inactive)	10.4 µM (inactive)	5.33 µM (inactive)	–
O=C(Nn1cnn2c(=O)c3ccccc3nc2c1=O)c1ccccc1	> 100 µM (inactive)	> 100 µM (inactive)	> 100 µM (inactive)	> 100 µM (inactive)	> 100 µM (inactive)	–	> 100 µM (inactive)	> 100 µM (inactive)	–	> 100 µM (inactive)	> 100 µM (inactive)	> 100 µM (inactive)	–	> 100 µM (inactive)	> 100 µM (inactive)	> 100 µM (inactive)	> 100 µM (inactive)	> 100 µM (inactive)	> 100 µM (inactive)	> 100 µM (inactive)
CNC(=O)N1N[C@H](c2ccccc2)[C@@H]1c1ccccc1.OB(O)O	32.7 µM (inactive)	32.4 µM (inactive)	–	23.7 µM (inactive)	22.6 µM (inactive)	18.7 µM (inactive)	21.8 µM (inactive)	–	15.4 µM (inactive)	17 µM (inactive)	29.9 µM (inactive)	14.5 µM (inactive)	14.2 µM (inactive)	17.3 µM (inactive)	18 µM (inactive)	46.1 µM (inactive)	18.4 µM (inactive)	20 µM (inactive)	22.5 µM (inactive)	28.1 µM (inactive)
CC(C)(C)N1CC2(CCCCC2)C1=O	> 100 µM (inactive)	> 100 µM (inactive)	–	> 100 µM (inactive)	> 100 µM (inactive)	> 100 µM (inactive)	> 100 µM (inactive)	> 100 µM (inactive)	–	> 100 µM (inactive)	> 100 µM (inactive)	> 100 µM (inactive)	> 100 µM (inactive)	> 100 µM (inactive)	> 100 µM (inactive)	> 100 µM (inactive)	> 100 µM (inactive)	> 100 µM (inactive)	> 100 µM (inactive)	–
CCN1CSC(=S)N(CC)C1	–	71.6 µM (inactive)	> 100 µM (inactive)	15 µM (inactive)	> 100 µM (inactive)	34.4 µM (inactive)	56.2 µM (inactive)	22.6 µM (inactive)	> 100 µM (inactive)	37.8 µM (inactive)	> 100 µM (inactive)	98.4 µM (inactive)	> 100 µM (inactive)	> 100 µM (inactive)	> 100 µM (inactive)	> 100 µM (inactive)	–	50.8 µM (inactive)	> 100 µM (inactive)	> 100 µM (inactive)
C[C@H](C(=O)C12CC3CC(CC(C3)C1)C2)[C@H](O)c1ccccc1	36 µM (inactive)	32.5 µM (inactive)	–	23.1 µM (inactive)	39.4 µM (inactive)	23.9 µM (inactive)	35.2 µM (inactive)	22 µM (inactive)	–	22.4 µM (inactive)	17.5 µM (inactive)	33.5 µM (inactive)	20.1 µM (inactive)	31.9 µM (inactive)	17.6 µM (inactive)	61.1 µM (inactive)	29.4 µM (inactive)	–	29 µM (inactive)	–
Cc1c(Cl)cccc1NC(=O)c1cccc([N+](=O)[O-])c1O	9.59 µM (inactive)	4.2 µM (inactive)	–	8.39 µM (inactive)	17.3 µM (inactive)	5.82 µM (inactive)	8.81 µM (inactive)	6.44 µM (inactive)	–	5.71 µM (inactive)	> 43 µM (inactive)	21 µM (inactive)	4.29 µM (inactive)	16.4 µM (inactive)	9.68 µM (inactive)	8.55 µM (inactive)	22.3 µM (inactive)	9.44 µM (inactive)	10.5 µM (inactive)	–
CN(C)CCC(=O)N1CCc2c([nH]c3ccccc23)C1c1cccnc1 (stereo not drawn)	> 100 µM (inactive)	> 100 µM (inactive)	–	> 100 µM (inactive)	> 100 µM (inactive)	> 100 µM (inactive)	> 100 µM (inactive)	> 100 µM (inactive)	–	> 100 µM (inactive)	> 100 µM (inactive)	> 100 µM (inactive)	0.192 µM (active)	> 100 µM (inactive)	54.2 µM (inactive)	> 100 µM (inactive)	> 100 µM (inactive)	> 100 µM (inactive)	41.6 µM (inactive)	–
Nc1nc(CCC(=O)Nc2cccc(C(F)(F)F)c2)cc(-c2cccc3ccccc23)n1	> 100 µM (inactive)	> 100 µM (inactive)	–	> 100 µM (inactive)	> 100 µM (inactive)	> 100 µM (inactive)	> 100 µM (inactive)	> 100 µM (inactive)	–	> 100 µM (inactive)	> 100 µM (inactive)	> 100 µM (inactive)	> 100 µM (inactive)	> 100 µM (inactive)	> 100 µM (inactive)	> 100 µM (inactive)	> 100 µM (inactive)	> 100 µM (inactive)	> 100 µM (inactive)	–
